Assay results: paper PMC9516332 (Frontiers in Oncology, 2022)
Where two headings read alike, the source gives them in different places.

Assays:
[1] = target: panel of 255 wild-type kinases (Homo sapiens, UniProt Q9Y6M4); assay: Kinase panel profiling at 1 µmol/L (MSA or IMAP), percentage inhibition; format: biochemical; settings: kinase CK1γ3; 1 µmol/L single concentration; read-out: %-inhibition at 1 µmol/L, CK1γ3
[2] = target: panel of 255 wild-type kinases (Homo sapiens, UniProt P29317); assay: as above; format: biochemical; settings: kinase EPHA2; 1 µmol/L single concentration; read-out: %-inhibition at 1 µmol/L, EPHA2
134 cancer cell lines = assay: Cell viability assay (ATPlite, 72 hours), IC50 on cancer cell line panel

`CO[C@]1(C(=O)N[C@@H](C)c2ccc(-n3cc(F)cn3)nc2)CC[C@H](c2nc(C)cc(Nc3cc(C)[nH]n3)n2)CC1` [pralsetinib] was tested, and the inhibition at 1 µM [1] was 0.449%, the inhibition at 1 µM [2] was 62% and the IC50 (134 cancer cell lines; HEC-6, read-out: IC50 in cell proliferation assay, HEC-6 cell line (EGFR p.A289V)) was 16.9 µM. The IC50 (134 cancer cell lines; Homo sapiens, 769-P, read-out: IC50 in cell proliferation assay, cell line 769-P) was 3.15 µM, the IC50 (134 cancer cell lines; Homo sapiens, 786-0, read-out: IC50 in cell proliferation assay, cell line 786-O) was 3.96 µM and the IC50 (134 cancer cell lines; Homo sapiens, A 172, read-out: IC50 in cell proliferation assay, cell line A-172) was 0.758 µM. For the same compound, the IC50 (134 cancer cell lines; Homo sapiens, A204, read-out: IC50 in cell proliferation assay, cell line A-204) was 0.679 µM, the IC50 (134 cancer cell lines; Homo sapiens, A498, read-out: IC50 in cell proliferation assay, cell line A-498) was 8.94 µM and the IC50 (134 cancer cell lines; Homo sapiens, A549, read-out: IC50 in cell proliferation assay, cell line A-549) was 8.17 µM. For the same compound, the IC50 (134 cancer cell lines; Homo sapiens, A704, read-out: IC50 in cell proliferation assay, cell line A-704) was 2.49 µM, the IC50 (134 cancer cell lines; Homo sapiens, A-375, read-out: IC50 in cell proliferation assay, cell line A-375 (BRAF p.V600E)) was 12.1 µM and the IC50 (134 cancer cell lines; Homo sapiens, A-427, read-out: IC50 in cell proliferation assay, cell line A-427) was 1.1 µM. For the same compound, the IC50 (134 cancer cell lines; Homo sapiens, ACHN, read-out: IC50 in cell proliferation assay, cell line ACHN) was 2.08 µM, the IC50 (134 cancer cell lines; Homo sapiens, AN3-CA, read-out: IC50 in cell proliferation assay, cell line AN3-CA (FGFR2 p.N549K)) was 0.9 µM and the IC50 (134 cancer cell lines; Homo sapiens, ASPC1, read-out: IC50 in cell proliferation assay, cell line AsPC-1) was 25.9 µM. The IC50 (134 cancer cell lines; Homo sapiens, AU565, read-out: IC50 in cell proliferation assay, cell line AU565 (ERBB2 amplification)) was 8.92 µM, the IC50 (134 cancer cell lines; Homo sapiens, BT-20, read-out: IC50 in cell proliferation assay, cell line BT-20) was 12.6 µM and the IC50 (134 cancer cell lines; Homo sapiens, BT-474, read-out: IC50 in cell proliferation assay, cell line BT-474 (ERBB2 amplification)) was greater than 31.6 µM. For the same compound, the IC50 (134 cancer cell lines; Homo sapiens, BT-549, read-out: IC50 in cell proliferation assay, cell line BT-549) was 1.93 µM, the IC50 (134 cancer cell lines; Homo sapiens, BXPC-3, read-out: IC50 in cell proliferation assay, cell line BxPC-3) was 3.46 µM and the IC50 (134 cancer cell lines; Homo sapiens, C-33-A, read-out: IC50 in cell proliferation assay, cell line C-33 A) was 0.981 µM. The IC50 (134 cancer cell lines; Homo sapiens, CAL-27, read-out: IC50 in cell proliferation assay, cell line CAL-27) was 1.95 µM, the IC50 (134 cancer cell lines; Homo sapiens, CCF-STTG1, read-out: IC50 in cell proliferation assay, cell line CCF-STTG1) was 5.77 µM and the IC50 (134 cancer cell lines; Homo sapiens, CCRF-CEM, read-out: IC50 in cell proliferation assay, cell line CCRF-CEM) was 13.3 µM. It also gave an IC50 (134 cancer cell lines; Homo sapiens, COLO 205, read-out: IC50 in cell proliferation assay, cell line COLO 205 (BRAF p.V600E)) of 12.9 µM, an IC50 (134 cancer cell lines; Homo sapiens, COLO-829, read-out: IC50 in cell proliferation assay, cell line COLO 829 (BRAF p.V600E)) of 24.7 µM and an IC50 (134 cancer cell lines; Homo sapiens, DLD-1, read-out: IC50 in cell proliferation assay, cell line DLD-1) of 9.98 µM. The IC50 (134 cancer cell lines; Homo sapiens, DU-4475, read-out: IC50 in cell proliferation assay, cell line DU4475 (BRAF p.V600E)) was 11.8 µM, the IC50 (134 cancer cell lines; Homo sapiens, Daoy, read-out: IC50 in cell proliferation assay, cell line Daoy) was 10.1 µM and the IC50 (134 cancer cell lines; Homo sapiens, DoTc2-4510, read-out: IC50 in cell proliferation assay, cell line DoTc2 4510) was 3.5 µM. For the same compound, the IC50 (134 cancer cell lines; Homo sapiens, EOL1, read-out: IC50 in cell proliferation assay, cell line EoL-1 (FIP1L1-PDGFRA)) was 0.016 µM, the IC50 (134 cancer cell lines; Homo sapiens, FaDu, read-out: IC50 in cell proliferation assay, cell line FaDu) was 3.65 µM and the IC50 (134 cancer cell lines; Homo sapiens, G-361, read-out: IC50 in cell proliferation assay, cell line G-361 (BRAF p.V600E)) was 17.6 µM. The IC50 (134 cancer cell lines; Homo sapiens, HCC827, read-out: IC50 in cell proliferation assay, cell line HCC827 (EGFR exon19del)) was 3.01 µM, the IC50 (134 cancer cell lines; Homo sapiens, HCC4006, read-out: IC50 in cell proliferation assay, cell line HCC4006 (EGFR exon19del)) was 5.93 µM and the IC50 (134 cancer cell lines; Homo sapiens, HCT-15, read-out: IC50 in cell proliferation assay, cell line HCT 15) was 5.73 µM. It also gave an IC50 (134 cancer cell lines; Homo sapiens, HCT-116, read-out: IC50 in cell proliferation assay, cell line HCT 116) of 10.3 µM, an IC50 (134 cancer cell lines; Homo sapiens, HEC-1, read-out: IC50 in cell proliferation assay, HEC-1 cell line) of 2.32 µM and an IC50 (134 cancer cell lines; Homo sapiens, HEC-1B, read-out: IC50 in cell proliferation assay, HEC-1-B cell line (EGFR p.A864V)) of 0.608 µM. For the same compound, the IC50 (134 cancer cell lines; Homo sapiens, HL-60, read-out: IC50 in cell proliferation assay, HL-60 cell line) was 25.2 µM, the IC50 (134 cancer cell lines; Homo sapiens, HT, read-out: IC50 in cell proliferation assay, HT cell line) was greater than 31.6 µM and the IC50 (134 cancer cell lines; Homo sapiens, HT-1080, read-out: IC50 in cell proliferation assay, HT-1080 cell line) was 8.1 µM. It also gave an IC50 (134 cancer cell lines; Homo sapiens, Hs746T, read-out: IC50 in cell proliferation assay, Hs 746.T cell line (MET exon14skip + amplification)) of 9.64 µM, an IC50 (134 cancer cell lines; Homo sapiens, Hs-578T, read-out: IC50 in cell proliferation assay, Hs 578T cell line) of 1.15 µM and an IC50 (134 cancer cell lines; Homo sapiens, HuTu80, read-out: IC50 in cell proliferation assay, HuTu 80 cell line) of 0.864 µM. It also gave an IC50 (134 cancer cell lines; Homo sapiens, J82, read-out: IC50 in cell proliferation assay, J82 cell line) of 1.74 µM, an IC50 (134 cancer cell lines; Homo sapiens, Jurkat E6.1, read-out: IC50 in cell proliferation assay, Jurkat E6.1 cell line) of 11.4 µM and an IC50 (134 cancer cell lines; Homo sapiens, K562, read-out: IC50 in cell proliferation assay, K-562 cell line) of 5.58 µM. It also gave an IC50 (134 cancer cell lines; Homo sapiens, KATO III, read-out: IC50 in cell proliferation assay, KATO III cell line (FGFR2 amplification)) of 0.273 µM, an IC50 (134 cancer cell lines; Homo sapiens, KG-1, read-out: IC50 in cell proliferation assay, KG-1 cell line (FGFR1OP2-FGFR1)) of 0.131 µM and an IC50 (134 cancer cell lines; Homo sapiens, KLE, read-out: IC50 in cell proliferation assay, KLE cell line) of 1.82 µM. It also gave an IC50 (134 cancer cell lines; Homo sapiens, KMS-11, read-out: IC50 in cell proliferation assay, KMS-11 cell line (FGFR3 p.Y373C)) of 0.394 µM, an IC50 (134 cancer cell lines; Homo sapiens, KU812, read-out: IC50 in cell proliferation assay, Ku812 cell line) of 3.74 µM and an IC50 (134 cancer cell lines; Homo sapiens, Kasumi 1, read-out: IC50 in cell proliferation assay, Kasumi-1 cell line (KIT p.N822K)) of 0.184 µM. It also gave an IC50 (134 cancer cell lines; Homo sapiens, LC-2-ad, read-out: IC50 in cell proliferation assay, LC-2/ad cell line (CCDC6-RET)) of 0.054 µM, an IC50 (134 cancer cell lines; Homo sapiens, LNCaP-Clone-FGC, read-out: IC50 in cell proliferation assay, LNCaP clone FGC cell line) greater than 31.6 µM and an IC50 (134 cancer cell lines; Homo sapiens, LS174T, read-out: IC50 in cell proliferation assay, LS174T cell line) of 2.29 µM. It also gave an IC50 (134 cancer cell lines; Homo sapiens, LS-411N, read-out: IC50 in cell proliferation assay, LS411N cell line (BRAF p.V600E)) of 25.6 µM, an IC50 (134 cancer cell lines; Homo sapiens, LoVo, read-out: IC50 in cell proliferation assay, LoVo cell line) of 1.52 µM and an IC50 (134 cancer cell lines; Homo sapiens, MCF7, read-out: IC50 in cell proliferation assay, MCF-7 cell line) greater than 31.6 µM. It also gave an IC50 (134 cancer cell lines; Homo sapiens, MDA-MB-231, read-out: IC50 in cell proliferation assay, MDA-MB-231 cell line) of 0.555 µM, an IC50 (134 cancer cell lines; Homo sapiens, MDA-MB-453, read-out: IC50 in cell proliferation assay, MDA-MB-453 cell line) greater than 31.6 µM and an IC50 (134 cancer cell lines; Homo sapiens, MDA-MB-468, read-out: IC50 in cell proliferation assay, MDA-MB-468 cell line) of 8.52 µM. For the same compound, the IC50 (134 cancer cell lines; Homo sapiens, MG-63, read-out: IC50 in cell proliferation assay, MG-63 cell line) was 1.88 µM, the IC50 (134 cancer cell lines; Homo sapiens, MIA PaCa-2, read-out: IC50 in cell proliferation assay, MIA PaCa-2 cell line) was 1.56 µM and the IC50 (134 cancer cell lines; Homo sapiens, MKN-45, read-out: IC50 in cell proliferation assay, MKN45 cell line (MET amplification)) was greater than 31.6 µM. For the same compound, the IC50 (134 cancer cell lines; Homo sapiens, MOLM-13, read-out: IC50 in cell proliferation assay, MOLM-13 cell line (FLT3 ITD)) was 0.033 µM and the IC50 (134 cancer cell lines; Homo sapiens, MOLT-4, read-out: IC50 in cell proliferation assay, MOLT-4 cell line) was 9.35 µM.
